In patent publication US6403648B2, “Alkylaminoalkyl-sulfonyl-terminated β-alanineamide amino-diol compounds for treatment of hypertension” (G. D. Searle & Co., priority 1993, dated 2002) one finds IC50 data, which are given here for one molecule.

This assay addresses T1, human renin (Homo sapiens, UniProt P00797).
T1 construct: purchased National Institute for Biological Standards, London
T1 sequence (P00797 67-406): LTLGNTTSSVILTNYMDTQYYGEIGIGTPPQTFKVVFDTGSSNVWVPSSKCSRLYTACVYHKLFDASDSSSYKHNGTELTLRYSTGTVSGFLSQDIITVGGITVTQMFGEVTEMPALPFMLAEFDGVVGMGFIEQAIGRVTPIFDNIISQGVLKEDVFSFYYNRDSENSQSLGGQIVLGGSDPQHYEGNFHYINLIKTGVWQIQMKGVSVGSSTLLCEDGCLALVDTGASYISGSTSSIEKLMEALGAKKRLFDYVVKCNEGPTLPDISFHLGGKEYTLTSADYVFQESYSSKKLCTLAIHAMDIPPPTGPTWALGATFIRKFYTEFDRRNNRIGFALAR
In words: Human renin inhibition in vitro. The assay is classed as biochemical. To be noted: human renin with human plasma as substrate, pH 7.4, 37° C., two hours; angiotensin I by radioimmunoassay; read-out: inhibit human renin in vitro, IC50. The procedure: Compounds of Formula I were evaluated as inhibitors of human renin in an in vitro assay, as follows: This human renin inhibition test has been previously described in detail [Papaioannou et al., Clinical and Experimental Hypertension, A7(9), 1243-1257 (1985)]. Human renin was obtained from the National Institute for Biological Standards, London. An incubation mixture was prepared containing the following components: in a total volume of 0.25 mL: 100 mM Tris-acetate buffer at pH 7.4, 25×10^−6 Goldblatt units of renin, 0.05 mL of plasma from human volunteers taking oral contraceptives, 6.0 mM Na-EDTA, 2.4 mM phenylmethyl sulfonyl fluoride, 1.5 mM 8-hydroxyquinoline, 0.4 mg/mL bovine serum albumin (BSA), and 0.024 mg/mL neomycin sulfate. This mixture was incubated for two hours at 37° C. in the presence or absence of renin inhibitors. The produced angiotensin I was determined by radioimmunoassay (New England Nuclear kit). Test compounds to be assayed were dissolved in DMSO and diluted with 100 mM Tris-acetate buffer at pH 7.4 containing 0.5% BSA to the appropriate concentration. The final concentration of organic solvent in the reaction mixture was less than 1%. Control incubations at 37° C. were used to correct for effects of organic solvent on renin activity. The in vitro enzymatic conversion of angiotensinogen to angiotensin I was inhibited by test compounds of the invention.

The IC50 is the concentration at which inhibition is half-maximal. Turning to `CC(C)C[C@H](O)[C@H](O)[C@H](CC1CCCCC1)NC(=O)[C@H](C)CNC(=O)C(Cc1ccccc1)CS(=O)(=O)CCN(C)C` (stereo partly shown) [Example 1], the IC50 was found to be 44 nM.
